Measurements taken from patent EP4745117A1, “NOVEL INDENONE DERIVATIVE AND USE THEREOF” (Amyloid Solution Inc., priority 2023, dated 2025).

How the values were obtained:
Aβ1-42 = target: T1, Aβ1-42 (Homo sapiens, UniProt P05067); assay: Amyloid-beta disaggregation test by Thioflavin-T analysis; format: biochemical; conditions: for EC50: Aβ1-42 50 µM aggregated 24 hours, then compound 0 - 500 µM for 48 hours at 37 °C, concentration disaggregating 50 % of aggregates vs control, read-out: EC50 (µM) Aβ; for disaggregation effect for amyloid-beta protein aggregates: statement in words summarising the Thioflavin-T results
T1 construct: dissolving Aβ1-42 or Tau-RD3 (Tau repeat domain 3) monomers in DMSO
T1 sequence (P05067 672-713 limits assumed): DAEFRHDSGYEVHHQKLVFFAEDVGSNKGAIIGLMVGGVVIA
Summary of the method: (§1)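 Aβ1-42 (50 µM) or Tau-RD3 (35 µM) pre-aggregated 24 h at 37 °C, then incubated with compound (500 µM down to 0 µM, serial dilution) for 48 h at 37 °C. Read-out by Thioflavin-T (5 µM solution, glycine buffer pH 8.5) fluorescence, ex 450/em 485 nm. Values expressed relative to 72 h aggregated protein-only control (100%).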

[1] = target: Tau-RD3 (Tau repeat domain 3) (Homo sapiens, UniProt P10636); assay: Tau disaggregation test by Thioflavin-T analysis; format: biochemical; conditions: for EC50: Tau-RD3 35 µM aggregated 24 hours, then compound 0 - 500 µM for 48 hours at 37 °C, concentration disaggregating 50 % of aggregates vs control, read-out: EC50 (µM) Tau; for disaggregation effect for tau protein aggregates: statement in words summarising the Thioflavin-T results
Chain of Tau-RD3 (Tau repeat domain 3) (P10636 623-653 limits assumed): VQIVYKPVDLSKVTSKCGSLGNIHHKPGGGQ
Summary of the method: as §1

[2] = tested on: amyloid-beta oligomers in HEK293 cells transfected with the APP E693Δ mutant plasmid; assay: Amyloid-beta oligomer change by dot blot (A11 antibody) in an amyloid-beta oligomer-overexpressing cell line; format: cell-based; conditions: compound 10 µM, 48 hours, dot blot of cell lysate, relative to control group (FIG. 1)
Description: To observe the change in intracellular amyloid-beta oligomers, a plasmid with the APP E693Δ (Osaka mutation) mutant, which is associated with early-onset Alzheimer's disease and is known to induce intracellular amyloid-beta oligomer formation, was obtained from GenScript. This plasmid was transfected into HEK293 cells using a liposome-mediated method (Lipofectamine) to prepare a cell line that overexpresses intracellular amyloid-beta oligomers.
HEK293 cells transfected with the APP E693Δ mutant plasmid were incubated for 48 hours in a 37 °C, 5 % CO2 incubator, and then treated with the compounds prepared in 1.1, which were diluted to a concentration of 10 µM in the cell culture medium. The untransfected control group was treated with 0.1 % DMSO, the same as the compound-treated group.
The compound-treated cell lines were again incubated for 48 hours in a 37 °C, 5 % CO2 incubator and then used in the experiment.
After incubating the control and compound-treated cells from Example 2.2, a dot blot was performed using the cell lysate. A 3.5 µg sample was spotted onto a nitrocellulose membrane and air-dried, and then the membrane to which the sample was adhered was blocked with 5 % skim milk. After incubating with the amyloid oligomer antibody A11 to allow binding, the membrane was washed 4 times with TBST, and the secondary antibody was bound. The image signal was measured using a chemiluminescent substrate.
It was confirmed that the amount of amyloid-beta oligomers was reduced by each compound treatment compared to the control group.

| Structure (SMILES) | EC50 (Aβ1-42) [µM] | EC50 [1] [µM] | amyloid-beta oligomer reduction effect [2] | disaggregation effect for amyloid-beta protein aggregates (Aβ1-42) | disaggregation effect for tau protein aggregates [1] |
| --- | --- | --- | --- | --- | --- |
| Cc1ncsc1C1=C(c2ccc(N3CCN(C)CC3)cc2)C(=O)c2cc(N3CCN(C)CC3)ccc21 [Compound 75, 6-(4-methylpiperazin-1-yl)-2-(4-(4-methylpiperazin-1-yl)phenyl)-3-(4-methylthiazol-5-yl)-1H-inden-1-one] | < 20 | < 20 | reduction effect |  |  |
| Cc1cccc(C)c1C1=C(c2ccccc2)C(=O)c2cc(N3CCN(C)CC3)ccc21 [Compound 72, 3-(2,6-dimethylphenyl)-6-(4-methylpiperazin-1-yl)-2-phenyl-1H-inden-1-one] | < 20 | < 20 | reduction effect | remarkably excellent disaggregation effect | remarkably excellent disaggregation effect |
| CN1CCN(c2ccc(C3=C(c4ccccc4)c4ccccc4C3=O)cc2)CC1 [Compound 90, 2-(4-(4-methylpiperazin-1-yl)phenyl)-3-phenyl-1H-inden-1-one] | < 20 | < 20 | reduction effect | remarkably excellent disaggregation effect | remarkably excellent disaggregation effect |
| O=C1C(c2ccccc2)=C(c2ccccc2)c2ccc(N3CCN(CCO)CC3)cc21 [Compound 70, 6-(4-(2-hydroxyethyl)piperazin-1-yl)-2,3-diphenyl-1H-inden-1-one] | < 20 | < 20 | reduction effect | remarkably excellent disaggregation effect | remarkably excellent disaggregation effect |
| Cc1ncsc1C1=C(c2ccc(N3CCN(C)CC3)cc2)C(=O)c2cc(Cl)ccc21 [Compound 74-7, 6-chloro-2-(4-(4-methylpiperazin-1-yl)phenyl)-3-(4-methylthiazol-5-yl)-1H-inden-1-one] | < 20 | < 20 | reduction effect | remarkably excellent disaggregation effect | remarkably excellent disaggregation effect |
| CN1CCN(c2ccc3c(c2)C(=O)C(c2ccccc2)=C3c2ccccc2)CC1 [Compound 13, 6-(4-methylpiperazin-1-yl)-2,3-diphenyl-1H-inden-1-one] | < 20 | < 20 | reduction effect | remarkably excellent disaggregation effect | remarkably excellent disaggregation effect |
